Experiment in all cases: relative viability (nuclei count vs DMSO), 5 days (fraction); higher = more cells survive
Compound in the assay “Cediranib + Bortezomib”: COc1cc2c(Oc3ccc4[nH]c(C)cc4c3F)ncnc2cc1OCCCN1CCCC1 [Cediranib] + CC(C)C[C@H](NC(=O)[C@H](Cc1ccccc1)NC(=O)c1cnccn1)B(O)O [Bortezomib] (partner 0.002 µM)
The method in brief:
(§1)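 Lung cancer cell lines were pin-tool dosed in 1536-well plates on the day after seeding, with either a lone drug or a fixed anchor-drug dose plus five library-drug doses (not always all listed) in √10 steps. Nuclei were counted on 4× images after 5 days. Relative viability is the ratio of treated-well to vehicle-well nuclei counts, with each value a median of duplicate plates.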

Compound in the assay “Decitabine + Lapatinib”: Nc1ncn([C@H]2C[C@H](O)[C@@H](CO)O2)c(=O)n1 [Decitabine] + CS(=O)(=O)CCNCc1ccc(-c2ccc3ncnc(Nc4ccc(OCc5cccc(F)c5)c(Cl)c4)c3c2)o1 [Lapatinib] (partner 2 µM)
The method in brief: as §1

Compound in the assay “Decitabine + Pemetrexed”: Nc1ncn([C@H]2C[C@H](O)[C@@H](CO)O2)c(=O)n1 [Decitabine] + Nc1nc2[nH]cc(CCc3ccc(C(=O)N[C@@H](CCC(=O)O)C(=O)O)cc3)c2c(=O)[nH]1 [Pemetrexed] (partner 0.2 µM)
In a few lines: as §1

Compound in assay [1]: O=C(C[C@H]1NCCC[C@@H]1O)Cn1cnc2cc(Br)c(Cl)cc2c1=O (racemic) [Halofuginone] + CC1(C)CCC(c2ccc(Cl)cc2)=C(CN2CCN(c3ccc(C(=O)NS(=O)(=O)c4ccc(N[C@H](CCN5CCOCC5)CSc5ccccc5)c(S(=O)(=O)C(F)(F)F)c4)cc3)CC2)C1 [Navitoclax] (partner 0.5 µM)
The method in brief:
as §1

Consider 201T, for which the relative viability with Cediranib + Bortezomib (first compound 0.04 µM) was found to be 1.16; in the assay with Cediranib + Bortezomib (first compound 0.1265 µM), 1.19; with Cediranib + Bortezomib (first compound 0.4 µM) it was 1.09; in the assay with Cediranib + Bortezomib (first compound 1.265 µM), 1.05; in the assay with Cediranib + Bortezomib (first compound 4 µM), 1.09; with Decitabine + Lapatinib (first compound 0.04 µM), 1.04. The relative viability was 1.04 with Decitabine + Lapatinib (first compound 0.1265 µM); 1.13 in the assay with Decitabine + Lapatinib (first compound 0.4 µM); 0.627 with Decitabine + Lapatinib (first compound 1.265 µM); 0.993 with Decitabine + Lapatinib (first compound 4 µM); 0.297 in the assay with Decitabine + Pemetrexed (first compound 0.04 µM); 0.286 with Decitabine + Pemetrexed (first compound 0.1265 µM). The relative viability with Decitabine + Pemetrexed (first compound 0.4 µM) was found to be 0.227; with Decitabine + Pemetrexed (first compound 4 µM) it was 0.254; in assay [1] (first compound 0.001 µM), 1.22; in assay [1] (first compound 0.003162 µM), 1.15; in assay [1] (first compound 0.01 µM) it was 1.24; in assay [1] (first compound 0.03162 µM), 1.13. Further, the relative viability in assay [1] (first compound 0.1 µM) came out at 1.28.
For the cell line A549, the relative viability with Decitabine + Lapatinib (first compound 0.04 µM) was determined as 0.898; with Decitabine + Lapatinib (first compound 0.1265 µM) it was 0.843; with Decitabine + Lapatinib (first compound 0.4 µM), 0.49; with Decitabine + Lapatinib (first compound 1.265 µM), 0.305; in the assay with Decitabine + Lapatinib (first compound 4 µM), 0.19; in assay [1] (first compound 0.001 µM) it was 1.33. In addition, the relative viability is 1.27 in assay [1] (first compound 0.003162 µM), 1.02 in assay [1] (first compound 0.01 µM), 0.676 in assay [1] (first compound 0.03162 µM) and 0.0879 in assay [1] (first compound 0.1 µM).
Turning to A-427, the relative viability was determined as 0.998 with Cediranib + Bortezomib (first compound 0.04 µM); 0.972 in the assay with Cediranib + Bortezomib (first compound 0.4 µM); 0.925 with Cediranib + Bortezomib (first compound 1.265 µM); 1.01 in the assay with Cediranib + Bortezomib (first compound 4 µM); 0.806 with Decitabine + Lapatinib (first compound 0.04 µM); 0.745 with Decitabine + Lapatinib (first compound 0.1265 µM). Besides, the relative viability is 0.318 with Decitabine + Lapatinib (first compound 0.4 µM); 0.333 with Decitabine + Lapatinib (first compound 1.265 µM); 0.229 with Decitabine + Lapatinib (first compound 4 µM); 0.847 with Decitabine + Pemetrexed (first compound 0.04 µM); 0.779 with Decitabine + Pemetrexed (first compound 0.1265 µM); 0.466 in the assay with Decitabine + Pemetrexed (first compound 0.4 µM). Besides, the relative viability with Decitabine + Pemetrexed (first compound 1.265 µM) came to 0.474; in the assay with Decitabine + Pemetrexed (first compound 4 µM), 0.474; in assay [1] (first compound 0.001 µM), 1.08; in assay [1] (first compound 0.003162 µM), 0.984; in assay [1] (first compound 0.01 µM), 0.903; in assay [1] (first compound 0.03162 µM), 0.898. In addition, in assay [1] (first compound 0.1 µM), the relative viability turned out to be 0.946.
For the cell line ABC-1, the relative viability with Cediranib + Bortezomib (first compound 0.04 µM) stood at 0.33; in the assay with Cediranib + Bortezomib (first compound 0.1265 µM), 0.272; with Cediranib + Bortezomib (first compound 0.4 µM) it was 0.307; with Cediranib + Bortezomib (first compound 4 µM) it was 0.305; with Decitabine + Lapatinib (first compound 0.04 µM), 1.27; with Decitabine + Lapatinib (first compound 0.1265 µM) it was 1.26. The figures for the relative viability with Decitabine + Lapatinib (first compound 0.4 µM), with Decitabine + Lapatinib (first compound 1.265 µM) and in the assay with Decitabine + Lapatinib (first compound 4 µM) were 1.16, 0.861 and 0.981, respectively.
Consider BEN, for which the relative viability in the assay with Cediranib + Bortezomib (first compound 0.04 µM) worked out at 0.872; with Cediranib + Bortezomib (first compound 0.1265 µM), 0.432; with Cediranib + Bortezomib (first compound 0.4 µM), 0.861; with Cediranib + Bortezomib (first compound 1.265 µM), 0.559; with Cediranib + Bortezomib (first compound 4 µM) it was 0.724; with Decitabine + Lapatinib (first compound 0.04 µM), 0.775. Also, the relative viability with Decitabine + Lapatinib (first compound 0.1265 µM) was determined as 0.678; with Decitabine + Lapatinib (first compound 0.4 µM), 0.358; with Decitabine + Lapatinib (first compound 1.265 µM), 0.45; with Decitabine + Lapatinib (first compound 4 µM), 0.348; with Decitabine + Pemetrexed (first compound 0.04 µM) it was 0.775; in the assay with Decitabine + Pemetrexed (first compound 0.1265 µM) it was 0.757. Also, the relative viability in the assay with Decitabine + Pemetrexed (first compound 0.4 µM) was found to be 0.632; with Decitabine + Pemetrexed (first compound 1.265 µM), 0.663; with Decitabine + Pemetrexed (first compound 4 µM), 0.553; in assay [1] (first compound 0.001 µM), 0.0684; in assay [1] (first compound 0.003162 µM), 0.132; in assay [1] (first compound 0.01 µM), 0.0701. The relative viability worked out at 0.0526 in assay [1] (first compound 0.03162 µM) and 0.0549 in assay [1] (first compound 0.1 µM).
Regarding CAL-12T, the relative viability worked out at 0.88 with Cediranib + Bortezomib (first compound 0.04 µM); 0.931 with Cediranib + Bortezomib (first compound 0.4 µM); 1.07 in the assay with Cediranib + Bortezomib (first compound 1.265 µM); 1.12 with Cediranib + Bortezomib (first compound 4 µM); 0.607 in the assay with Decitabine + Lapatinib (first compound 0.04 µM); 0.698 in the assay with Decitabine + Lapatinib (first compound 0.1265 µM). Besides, the relative viability with Decitabine + Lapatinib (first compound 0.4 µM) worked out at 0.264; with Decitabine + Lapatinib (first compound 1.265 µM), 0.504; with Decitabine + Lapatinib (first compound 4 µM), 0.375; with Decitabine + Pemetrexed (first compound 0.04 µM), 1.07; with Decitabine + Pemetrexed (first compound 0.1265 µM), 1.04; with Decitabine + Pemetrexed (first compound 0.4 µM), 0.599. Besides, the relative viability stood at 0.609 with Decitabine + Pemetrexed (first compound 1.265 µM); 0.36 with Decitabine + Pemetrexed (first compound 4 µM); 1.54 in assay [1] (first compound 0.001 µM); 1.37 in assay [1] (first compound 0.003162 µM); 1.24 in assay [1] (first compound 0.01 µM); 0.974 in assay [1] (first compound 0.03162 µM). Further, the relative viability in assay [1] (first compound 0.1 µM) is 0.565.
Regarding COR-L23, the relative viability is 0.944 in the assay with Cediranib + Bortezomib (first compound 0.04 µM); 1.05 with Cediranib + Bortezomib (first compound 0.1265 µM); 0.867 with Cediranib + Bortezomib (first compound 0.4 µM); 0.969 with Cediranib + Bortezomib (first compound 1.265 µM); 1.18 in the assay with Cediranib + Bortezomib (first compound 4 µM); 0.698 in the assay with Decitabine + Lapatinib (first compound 0.04 µM). The relative viability in the assay with Decitabine + Lapatinib (first compound 0.1265 µM) was determined as 0.51; with Decitabine + Lapatinib (first compound 0.4 µM), 0.459; in the assay with Decitabine + Lapatinib (first compound 1.265 µM) it was 0.28; with Decitabine + Lapatinib (first compound 4 µM) it was 0.23; in the assay with Decitabine + Pemetrexed (first compound 0.04 µM), 0.198; with Decitabine + Pemetrexed (first compound 0.1265 µM) it was 0.207. In addition, the relative viability with Decitabine + Pemetrexed (first compound 0.4 µM) was 0.18; in the assay with Decitabine + Pemetrexed (first compound 1.265 µM) it was 0.178; with Decitabine + Pemetrexed (first compound 4 µM) it was 0.196; in assay [1] (first compound 0.001 µM) it was 1.03; in assay [1] (first compound 0.003162 µM) it was 1.1; in assay [1] (first compound 0.01 µM), 1.03. Moreover, the results for the relative viability in assay [1] (first compound 0.03162 µM) and in assay [1] (first compound 0.1 µM) were 0.976 and 0.126, respectively.
Take COR-L 105: the relative viability with Cediranib + Bortezomib (first compound 0.1265 µM) was determined as 0.666; with Cediranib + Bortezomib (first compound 0.4 µM), 0.715; with Cediranib + Bortezomib (first compound 1.265 µM), 0.722; with Cediranib + Bortezomib (first compound 4 µM) it was 0.828; with Decitabine + Lapatinib (first compound 0.04 µM) it was 0.345; with Decitabine + Lapatinib (first compound 0.1265 µM) it was 0.317. Also, the relative viability was 0.328 with Decitabine + Lapatinib (first compound 0.4 µM); 0.326 with Decitabine + Lapatinib (first compound 1.265 µM); 0.28 in the assay with Decitabine + Lapatinib (first compound 4 µM); 1.01 with Decitabine + Pemetrexed (first compound 0.04 µM); 1.08 with Decitabine + Pemetrexed (first compound 0.1265 µM); 0.882 with Decitabine + Pemetrexed (first compound 0.4 µM). Moreover, the relative viability in the assay with Decitabine + Pemetrexed (first compound 1.265 µM) was 0.698; with Decitabine + Pemetrexed (first compound 4 µM), 0.668; in assay [1] (first compound 0.001 µM), 0.939; in assay [1] (first compound 0.003162 µM) it was 0.396; in assay [1] (first compound 0.01 µM) it was 0.733; in assay [1] (first compound 0.03162 µM), 0.595. In addition, the relative viability in assay [1] (first compound 0.1 µM) was determined as 0.46.
Take Calu-6: the relative viability with Cediranib + Bortezomib (first compound 0.04 µM) came out at 1.03; in the assay with Cediranib + Bortezomib (first compound 0.1265 µM), 0.977; with Cediranib + Bortezomib (first compound 0.4 µM), 1.05; with Cediranib + Bortezomib (first compound 1.265 µM) it was 0.968; with Cediranib + Bortezomib (first compound 4 µM), 1.03; in the assay with Decitabine + Lapatinib (first compound 0.04 µM), 0.87. The relative viability in the assay with Decitabine + Lapatinib (first compound 0.1265 µM) was 0.689; in the assay with Decitabine + Lapatinib (first compound 0.4 µM), 0.316; in the assay with Decitabine + Lapatinib (first compound 1.265 µM), 0.308; with Decitabine + Lapatinib (first compound 4 µM), 0.264; in assay [1] (first compound 0.001 µM), 0.896; in assay [1] (first compound 0.003162 µM), 0.956. The relative viability in assay [1] (first compound 0.01 µM) came to 0.884; in assay [1] (first compound 0.03162 µM), 0.258; in assay [1] (first compound 0.1 µM) it was 0.092.

The values above are taken from the supplement of paper PMC10307832.
